These results are taken from patent publication US20110077270A1, “Compositions and Methods for Treating Ocular Inflammation with Lower Risk of Increased Intraocular Pressure” (priority 2009, published 2011).

“And” between values parts separate entries of the source, which are not always exact repeats. Identical values can stand only once. Like-named read-outs stand apart in the source and are kept apart here.

Assay [1] deals with myocilin protein in CM of monkey TM cells. The experiment in a line: Myocilin protein in conditioned media of monkey TM cells (Western blot). It is filed as cell-based, rhesus monkeys (Macaca mulatta). As to conditions: for EC50: nine monkey TM cell strains; for Efficacy ± SE (weighted average; %): estimated efficacy at 300 nM for inducing myocilin protein expression, normalized to DEX (100%), nine experiments (one per strain). As for the experimental part: (§1) For each study, up to nine TM cell strains, each derived from an individual monkey, were tested separately. Cells were thawed and seeded into 12- or 48-well clusters (Falcon, BD Biosciences; 150,000 and 30,000 cells/well, respectively) in proliferation medium. When cells were 75% to 90% confluent proliferation medium was replaced by a 5:4 mixture of HESFM and Dulbecco's MEM, respectively, supplemented with 10% FBS, with added taurine, ascorbic acid phosphate, glutathione, and antibiotic as for proliferation medium (above), and with 2.72 g/L glucose and 1.72 g/L fructose. At confluence, the medium was changed to Dulbecco's MEM, containing 10% FBS^40, ascorbic acid phosphate, antibiotic, 2.72 g/L glucose and 1.72 g/L fructose. Cells were maintained as stable, confluent monolayers in this latter medium for 4 to 7 days before experimental treatments commenced.
All treatments, including media for vehicle control samples, contained a final DMSO concentration of 0.1% (v/v) across the concentration ranges selected. Treatments lasted 96 hours, with one exchange of medium on the third treatment day. The final 48-hr conditioned media (“CM”) samples were collected in their entirety (0.5 ml), centrifuged briefly to remove particulates, aliquoted, and stored at −20° C. until thawed for analysis.
Undiluted CM was combined with denaturing 4× sample buffer containing 2% SDS, and samples were loaded at equivalent protein content onto 4-20% Tris-HCl polyacrylamide gels (BioRad, Hercules, Calif.). After electrophoresis, proteins underwent wet transfer to […] nitrocellulose (BioRad) for immunoblotting. The filters were blocked with 5% (w/v) nonfat dry milk (BioRad) in Tris-buffered saline plus 0.02% (v/v) Tween-20 (“TBST”; Tween-20 from Calbiochem, San Diego, Calif.), and incubated with a 1:2000 dilution (from 200 μg/ml) of goat anti-recombinant human myocilin antibody (R&D Systems, Minneapolis, Minn.) in blocking buffer, overnight at 4° C. After washing in TBST, the filters were incubated with a 1:25,000 dilution (from 0.8 mg/ml) of horseradish peroxide-conjugated mouse anti-goat IgG (H+L) (Pierce Biotechnology, Rockford, Ill.) in blocking buffer, for 90 minutes at room temperature. After washing in TBST, the blots were developed in SuperSignal® West Dura Extended Duration Substrate (Pierce) for chemiluminescent detection. Bands corresponding to myocilin were digitally captured and stored using a FluorChem Imager (Alpha-Innotech, San Leandro, Calif.), with all blots receiving equal exposure/capture times. The imager system software was then used to calculate pixel density for equivalent rectangular areas incorporating the bands.
(§2) Data underwent Box-Cox transformations for one- or two-way analysis of variance (ANOVA), followed by the Tukey-Kramer test, using JMP software (SAS, Cary, N.C.). The specific transformations used for analyses are mentioned in the figure legends. For each set of triplicate samples from the individual monkey TM cell strains tested, Western blot densitometry values for myocilin protein detected in CM (as geometric means), and relative abundance of myocilin mRNA (as geometric means), were plotted as a function of drug concentrations. P-values less than 0.05 were considered statistically significant. Dose-response curve data were fitted to a re-parameterized four-parameter logistic equation using similar methodology to that previously described, and these equations permitted estimation of the EC50 values±95% confidence intervals, for each drug treatment.

Assay [2] relates to myocilin mRNA in monkey TM cells. The experiment in a line: Myocilin mRNA expression in monkey TM cells (qRT-PCR). As to conditions: for EC50: expression of myocilin mRNA, weighted averages, two dose-response studies each using two monkey TM cell strains. It is filed as cell-based, rhesus monkeys (Macaca mulatta). As to the method:
as §1
After quantification of purified total RNA (Quant-iT RNA Assay kit, Molecular Probes, Eugene, Oreg.), equivalent amounts of this RNA were apportioned to generate first-strand cDNAs for each treatment sample, using random primers, (Affinity Script, Stratagene, La Jolla, Calif.). Oligonucleotide myocilin primers, designed based on the cynomolgus MYOC gene, and fluorescent Taqman probe (Applied Biosystems, Foster City, Calif.) were used for PCR amplification. Equal amounts of total RNA-equivalent mass (approximate range […]) reactant cDNA were added to the PCR Master Mix (Stratagene) and myocilin primers/Taqman probe. Amplification was performed in a thermocycler (Mx3005P, Stratagene), with an initial denaturation step at 95° C. for 10 min, followed by 40 cycles of 95° C. for 15 sec and 60° C. for 1 min for extension. Every run included standard controls (i.e., either without reverse transcriptase or lacking template). Relative quantities of myocilin mRNA abundance were determined using differences in threshold cycles (“Ct”) between vehicle control and drug treatments. Each sample was analyzed in triplicate wells, and the corresponding values averaged for further quantitative analysis. Myocilin mRNA abundance, expressed in proportion to vehicle control-treated samples, was calculated using the Mx3005P software.
as §2, with “Dose-response curve data were fitted to a re-parameterized four-parameter logistic equation using similar methodology to that previously described, and these equations permitted estimation of the EC50 values±95% confidence intervals, for each drug treatment.” left out
(Real-time PCR tracks product formation cycle by cycle.)

Assay [3] has as its system rabbit paracentesis model. The experiment in a line: Clinical evaluation (slit lamp clinical score), rabbit paracentesis model. Type of assay: in vivo. More on the design: key to Clinical Score −180 min / Clinical Score −5 min / Clinical Score +115 min: 0: normal; 1: discrete dilatation of iris and conjunctival vessels; 2: moderate dilatation of iris and conjunctival vessels; 3: intense iridal hyperemia with flare in the anterior chamber; 4: intense iridal hyperemia with flare in the anterior chamber and presence of fibrinous exudates. The conditions noted are these: for Clinical Score −5 min: 5 min before first paracentesis; for Clinical Score −5 min / Clinical Score +115 min / Clinical Score −180 min: individual eye; for Clinical Score +115 min: 5 min before second paracentesis; for Clinical Score −180 min: basal.

Where [4] appears, read: Primates, expression of myocilin protein, weighted averages, read-out: EC50 ± SE.
Setting [5] is: Primates, 96 hours treatment, read-out: EC50, myocilin protein expression.
The mark [6] stands for this setting: 0.1% topical formulation, +115 min.
Setting [7] is: 0.1% topical formulation, −5 min.
Where [8] appears, read: 0.1% topical formulation, −180 min (basal).
The mark [9] stands for this setting: 0.5% topical formulation, +115 min.

One may read the EC50 as the concentration that produces a half-maximal response. In the case of `Cc1ccc2c(NCC(O)(CC(C)(C)c3cc(F)cc4c3OCC4)C(F)(F)F)cccc2n1` (centres unmarked) [BOL-303242-X], the “Myocilin protein released by cultured monkey TM cells compared to DEX” value in assay [1] (3 to 300 nM) is given as “significantly lower levels of myocilin protein”. Further, in assay [1] (Primates, read-out: Maximal efficacy for myocilin protein accumulation, relative to that observed after DEX treatment, computed across all nine TM cell strains), the Emax is approximately 50%. Further, the EC50 turned out to be 21 ± 4.28 nM in assay [1] (setting [4]), 21 nM in assay [1] (setting [5]) and 20.8 ± 2.74 nM in assay [2] (Primates). The “Efficacy ± SE (weighted average; %)” value in assay [1] is recorded as 53.12 ± 2.20%. Besides, the “Myocilin mRNA abundance compared with DEX” value in assay [2] (3 to 300 nM) is “significantly lower mRNA abundance values at all doses compared with DEX”. The Emax at 0.3 µM in assay [2] (Primates, read-out: Maximal efficacy for myocilin mRNA expression, relative to DEX, 300 nM, single monkey TM cell strain (FIG. 5)) is approximately 67%. In addition, the “Clinical Score −5 min” value in assay [3] (0.1% topical formulation), in assay [3] (0.5% topical formulation) and in assay [3] (1% topical formulation) was 0 each time. The “Clinical Score +115 min” value in assay [3] (0.1% topical formulation, listed as BOL) was 2 (6×) and 3 (2×); in assay [3] (0.5% topical formulation, listed as BOL), 2 (5×) and 1 (3×); in assay [3] (1% topical formulation), 2. Further, the “Percentage of eyes with clinical score 2” value in assay [3] (setting [6]) was 75%; in assay [3] (setting [9]) it was 62.5%; in assay [3] (1% topical formulation, +115 min), 100%. Moreover, the “Percentage of eyes with clinical score 3” value in assay [3] (setting [6]) came to 25%. Also, the “Clinical Score −180 min” value in assay [3] (0.1% topical formulation), in assay [3] (0.5% topical formulation) and in assay [3] (1% topical formulation) was 0 in each case. For the same compound, the “Percentage of eyes with clinical score 0” value in assay [3] (setting [7]) was 100%; in assay [3] (setting [8]), 100%; in assay [3] (0.5% topical formulation, −5 min) it was 100%; in assay [3] (0.5% topical formulation, −180 min (basal)), 100%; in assay [3] (1% topical formulation, −5 min), 100%; in assay [3] (1% topical formulation, −180 min (basal)) it was 100%. Further, the “Percentage of eyes with clinical score 1” value in assay [3] (setting [9]) is recorded as 37.5%.
`C[C@@H]1C[C@H]2[C@@H]3CCC4=CC(=O)C=C[C@]4(C)[C@@]3(F)[C@@H](O)C[C@]2(C)[C@@]1(O)C(=O)CO` [Dex, dexamethasone, reference compound]: the “Myocilin protein level over control” value in assay [1] (300 nM, one of the monkey TM cell strains, CM of second 48-hour period) worked out at 1233%. Further, the EC50 in assay [1] (setting [4]) amounted to 14.6 ± 2.65 nM. Further, the EC50 in assay [1] (setting [5]) came out at 14.6 nM. Further, the “Efficacy ± SE (weighted average; %)” value in assay [1] is given as 100 ± 6.09%. The EC50 in assay [2] (Primates) came out at 14.7 ± 1.27 nM. In assay [3] (0.1% topical formulation), the “Clinical Score −5 min” value is 0 (6×) and 1 (2×); the “Clinical Score +115 min” value is 1 (6×) and 3 (2×); the “Clinical Score −180 min” value is listed as 0. In assay [3] (setting [6]), the “Percentage of eyes with clinical score 1” value is reported as 75% and the “Percentage of eyes with clinical score 3” value was determined as 25%. In assay [3] (setting [7]), the “Percentage of eyes with clinical score 0” value was 75% and the “Percentage of eyes with clinical score 1” value is given as 25%. Moreover, in assay [3] (setting [8]), the “Percentage of eyes with clinical score 0” value was 100%.
